The text below walks through data of US20230404921A1, “LYOTROPIC LIQUID CRYSTALLINE PHASE PARTICLE” (priority 2020, published 2023).

Values after ≈ are worked out from the molar mass of the structure shown. Where two headings read alike, the source gives them in different places.

For assay [1], the system named is Pseudomonas aeruginosa (ATCC 2835). Kind of assay: MTS based cell viability assay. Particulars: for inhibition at 0.5 µg/mL: ATCC2835, drug conc 0.5 ug/ml; for inhibition at 2.5 µg/mL: ATCC2835, drug conc 2.5 ug/ml; for inhibition at 5 µg/mL: ATCC2835, drug conc 5 ug/ml; for inhibition at 7.5 µg/mL: ATCC2835, drug conc 7.5 ug/ml; for inhibition at 10 µg/mL: ATCC2835, drug conc 10 ug/ml; for inhibition at 15 µg/mL: ATCC2835, drug conc 15 ug/ml; for inhibition at 20 µg/mL: ATCC2835, drug conc 20 ug/ml; for inhibition at 25 µg/mL: ATCC2835, drug conc 25 ug/ml.

Assay [2] concerns Candida albicans (ATCC10251). Kind of assay: Fungal cell viability assay (MTS).
Assay [3] has as its system fluconazole-resistant Cryptococcus neoformans. In words: Antimicrobial assay MIC-50 / MIC-90, 96 well plate. The assay is classed as cell-based. The note with it: for MIC50: Cryptococcus neoformans.
Where [4] appears, read: Pseudomonas aeruginosa, read-out: Percentage inhibition.

For orientation: inhibition means the relative decrease from the control value, in per cent. For the molecule `CN[C@H](CC(C)C)C(=O)N[C@H]1C(=O)N[C@@H](CC(N)=O)C(=O)N[C@H]2C(=O)N[C@H]3C(=O)N[C@H](C(=O)N[C@H](C(=O)O)c4cc(O)cc(O)c4-c4cc3ccc4O)[C@H](O)c3ccc(c(Cl)c3)Oc3cc2cc(c3O[C@@H]2O[C@H](CO)[C@@H](O)[C@H](O)[C@H]2O[C@H]2C[C@](C)(N)[C@H](O)[C@H](C)O2)Oc2ccc(cc2Cl)[C@H]1O` [vancomycin, Vancomycin], in assay [1] (setting [4]), the inhibition at 0.5 µg/mL is 1.24%, the inhibition at 2.5 µg/mL was 9.83%, the inhibition at 5 µg/mL was found to be 11.6% and the inhibition at 7.5 µg/mL stood at 14.2%. Besides, in assay [1] (setting [4]), the inhibition at 10 µg/mL was determined as 16.6%, the inhibition at 15 µg/mL came out at 17.6%, the inhibition at 20 µg/mL came to 18% and the inhibition at 25 µg/mL came to 18.4%.

On to `CO[C@@H]1[C@@H](OC(N)=O)[C@@H](O)[C@H](Oc2ccc3c(O)c(NC(=O)c4ccc(O)c(CC=C(C)C)c4)c(=O)oc3c2C)OC1(C)C` [novobiocin, Novobiocin], for which the inhibition at 80 µg/mL in assay [1] (Pseudomonas aeruginosa, ATCC2835, drug conc 80 ug/ml, read-out: Percentage inhibition) was 13%.

For `C[C@@H]1[C@H](O)[C@@H](C)/C=C/C=C/C=C/C=C/C=C/C=C/C=C/[C@H](O[C@@H]2O[C@H](C)[C@@H](O)[C@H](N)[C@@H]2O)C[C@@H]2O[C@](O)(C[C@@H](O)C[C@@H](O)[C@H](O)CC[C@@H](O)C[C@@H](O)CC(=O)O[C@H]1C)C[C@H](O)[C@H]2C(=O)O` [amphotericin, Amphotericin B], in assay [2], the “concentration required to achieve 98% inhibition” value was 10 µg/mL.

As for `CC1(C)S[C@@H]2[C@H](NC(=O)[C@H](N)c3ccccc3)C(=O)N2[C@H]1C(=O)O` [Ampicillin], in assay [1] (setting [4]), the inhibition at 0.5 µg/mL was 39%, the inhibition at 2.5 µg/mL was 39.8%, the inhibition at 5 µg/mL was 41.9% and the inhibition at 7.5 µg/mL turned out to be 42.8%. Besides, in assay [1] (setting [4]), the inhibition at 10 µg/mL came to 46.4%, the inhibition at 15 µg/mL amounted to 62.2%, the inhibition at 20 µg/mL turned out to be 69.9% and the inhibition at 25 µg/mL was 72.3%. The same molecule came in with a Percentage inhibition in assay [1] (drug conc 0.5 ug/ml) of 38.64%.

`OC(Cn1cncn1)(Cn1cncn1)c1ccc(F)cc1F` [Fluconazole only, Fluconazole]: the MIC50 is 12.4 µg/mL (≈ 40.4 µM) in assay [3] (pH 5.17) and 12.2 µg/mL (≈ 39.7 µM) in assay [3] (pH 7.08, read-out: MIC-50). Also, the MIC-90 result in assay [3] (pH 5.17) was “fails to reach MIC-90”.
